US20030161893A1, “PTPase inhibitors and methods of using the same” (priority 2001, published 2003)

Experiments:
Stat1 [1] = experiment: IFN-alpha-induced Stat1 tyrosine phosphorylation, DR cells; type: cell-based, human
Protocol: (§1) For induction of Stat1 tyrosine phosphorylation by IFN-alpha in the absence or presence of sodium stibogluconate, cells grown in 10% FCS RPMI 1640 medium at 37° C. were stimulated with IFN-alpha (50 u/ml) for various time points and treated with or without sodium stibogluconate for 5 minutes prior to termination by lysing the cells in cold lysis buffer (1% NP-40; 50 mM Tris, pH 7.4; 100 mM NaCl; 1 mM EDTA, 10% glycerol, 10 mM sodium molybdic acid and 4 mM AEBSF).
(§2) Cell lysates were prepared by lysing cells in cold lysis buffer for 30 min and cleared by centrifuging at 14,000 rpm at 4° C. for 15 min. For SDS-PAGE, cell lysates were mixed with equal volume of 2×SDS-PAGE sample buffer, heated at 90° C. for 5 min and separated in 10% SDS-PAGE gels. Cellular proteins in SDS-PAGE gels were transferred to nitrocellulose membrane (Schleicher & Schuell, Keene, N.H.), blocked in 5% milk, probed with antibodies and detected by using an enhanced chemiluminescence kit (ECL, Amersham, Arlington Heights, Ill.).

Stat1 [2] = experiment: IFN-alpha-induced Stat1 tyrosine phosphorylation, DU145 cells; type: cell-based, human; settings: DU145, 5 hours post-stimulation
Protocol: as §1, §2

NB4 cells = experiment: NB4 cell growth (MTT), cell cycle and Annexin V; type: cell-based, human
Protocol: The NB4 cell line (Lanotte et al., Blood 77, 1080 (1991)) was a gift from Dr. Dan Lindner of the Cleveland Clinic Foundation. […] and U937 cell lines were purchased from American Type Culture Collection (Rockville, Md.). These human […] cell lines were maintained in RPMI 1640 medium supplemented with 10% fetal calf serum (FCS). For cell proliferation assays, cells were cultured at 37° C. in 10% FCS medium containing various amounts of sodium stibogluconate for 6 days. The cell numbers in the cultures were determined by an MTT assay as described previously in Mosmann, J. Imunol. Methods 65, 55 (1983).
The cell cycle was analyzed by flow cytometry after 3 days of culture of NB4 cells in the absence or presence of sodium stibogluconate (250 μg/ml) or ATRA (1 μM). Briefly, the cells were fixed in cold ethanol and incubated for 30 minutes at 4° C. in the dark with a solution of […] propidium iodide, 1 mg/ml RNase and 0.1% NP-40. Analysis was performed immediately after staining using the CELLFIT program (Becton Dickinson, Mountain View, Calif.).
Annexin V staining of exposed membrane phospholipid phosphatidylserine (PS) was done using the Annexin V assay kit (Pharmingen, San Diego, Calif.). Briefly, NB4 cells were cultured in the 10% FCS RPMI 1640 medium in the absence or presence of sodium stibogluconate (250 μg/ml) or ATRA (1 μM) for 3 days. Cells were then washed in PBS twice and stained in binding buffer (10 mM Hepes, pH 7.4; 140 mM NaCl; 2.5 mM CaCl2) containing Annexin V-FITC and propidium iodide for 15 min. The reaction was stopped by adding 10 volumes of binding buffer and analyzed by FACS (Becton Dickinson Facsvantage).

TF-1 cells = experiment: TF-1 cell proliferation assay; type: cell-based, human
Protocol: (§3) The murine hematopoietic cell line Baf3 was maintained in RPMI 1640 medium supplemented with 10% fetal calf serum (FCS) and murine IL-3 (20 units/ml) as described previously in Damen et al., J. Biol. Chem. 270, 23402 (1995). Human myeloid cell line TF-1 was maintained in RPMI 1640 supplemented with 10% FCS and 40 ng/ml of recombinant human GM-CSF as described previously in Thomassen et al., Clin. Immunol. 95, 85 (2000). For cell proliferation assays, cells were washed in 10% FCS medium twice, resuspended in 10% FCS medium, incubated at 37° C. for 16 hours, and then cultured at 37° C. in 10% FCS medium containing various amounts of cytokines, sodium stibogluconate, or potassium antimonyl tartrate for 3-6 days as indicated. The cell numbers in proliferation assays were determined by an MTT assay or by microscopic cell counting as indicated.

Baf3 cells = experiment: Baf3 cell proliferation assay; type: cell-based, murine
Protocol: as §3

DU145 cells = experiment: Cell proliferation assay (MTT), DU145 prostate cancer cells; type: cell-based, human
Protocol: For cell proliferation assays, cells were grown in 10% FCS culture medium containing various amounts of IFNs and/or sodium stibogluconate in 96 well plates and cultured at 37° C. for 3 or 6 days as indicated. The numbers of viable cells in proliferation assays were determined by MTT assays as described in Phatak et al., J. Immunol. 167, 3391 (2001).
NIH3T3 (Yi, et al., Blood 85, 87 (1995)), WM9 (Forsberg, et al., Proc. Nat. Acad Sci. USA 90, 393 (1993)), DU145 (Mickey, et al., Cancer Res. 37, 4049 (1977)), LoVo (Drewinko, et al., Cancer Res. 36, 467 (1976)), HEY (Buick, et al., Cancer Res. 45, 3668 (1985)), U251 (Yoshida, et al., Cancer 50, 410 (1982)), A549 (Giard, et al., J. Natl. Cancer Inst. 51, 1417 (1973)) and SK-N-SH (Helson, et al., Cancer Res. 35, 2594 (1975)) cell lines have been described and were cultured in RPMI 1640 supplemented with 10% fetal calf serum (FCS). For measurement of sodium stibogluconate effects on cell growth in vitro, cells were cultured in the absence (−) or presence (+) of various amounts of sodium stibogluconate for 6 days with viable cells quantified by MTT assays (Mosmann, J. Imunol. Methods 65, 55 (1983)). Percentages of growth inhibition by sodium stibogluconate were calculated (+/−×%).

O.O.O.O.O.O.O.O.O.O=C([O-])[C@@H]1[O][Sb]2([O-])([O][Sb]34([OH])[O][C@H]([C@H](O)CO)[C@H]([O]3)[C@H](C(=O)[O-])[O]4)[O][C@H]([C@H](O)CO)[C@@H]1[O]2.[Na+].[Na+].[Na+] [sodium stibogluconate]
IFN-alpha-induced Stat1 tyrosine phosphorylation versus control (Stat1 [1]; 10 μg/ml, 30 min post-stimulation): two folds greater than control
Stat1 tyrosine phosphorylation by drug alone (Stat1 [1]; absence of IFN-alpha): failed to induce Stat1 tyrosine phosphorylation
IFN-alpha-induced Stat1 tyrosine phosphorylation (Stat1 [2]): Enhanced
Annexin V staining of NB4 cells (NB4 cells; 250 μg/ml, 6 days): stained positive by Annexin V
proliferation of NB4 cells (NB4 cells; 12.5-400 μg/ml, MTT): markedly inhibited
cell cycle of NB4 cells (NB4 cells; 3 days, sodium stibogluconate 250 μg/ml, ATRA 1 μM): significant increase of cells at S phase
GM-CSF-induced proliferation of TF-1 cells (TF-1 cells; 50 μg/ml, GM-CSF 5-40 ng/ml): augmented
growth inhibition activity of IFN-alpha in TF-1 cells in presence of drug (TF-1 cells; 50 μg/ml, with GM-CSF): enhanced
effect of low doses on GM-CSF-induced TF-1 growth (TF-1 cells; 12.5-50 μg/ml): no negative effect on GM-CSF-induced cell growth
IL-3-induced Baf3 growth at high concentration (Baf3 cells; 1,000 μg/ml): suppressed IL-3-induced Baf3 growth
Baf3 proliferation/viability in the absence of IL-3 (Baf3 cells; day 3 culture): failed to support cell proliferation or maintain cell viability
killing of DU145 cells, single agent (DU145 cells; 50 μg/ml and 100 μg/ml, day 6 culture): killed all cells
cell killing, DU145 (DU145 cells; 100 μg/ml, day 6): near-complete cell killing
IFN-alpha-induced growth inhibition of DU145 in presence of drug (DU145 cells; day 6): augmented
